ChEMBL document CHEMBL1152196, “Benzimidazole- and benzoxazole-based inhibitors of Rho kinase” (Bioorg Med Chem Lett, 2008)

Experiments:
[1] = target: T1, Rho-associated protein kinase 2 (Homo sapiens, UniProt O75116); test: Inhibition of ROCK2
[2] = target: T1, Rho-associated protein kinase 2; test: Inhibition of ROCK2 assessed as myosin light chain phosphorylation by cell-based assay
[3] = Metabolic stability in human liver microsomes; format: ADME, Microsome
[4] = Inhibition of PKA
[5] = Cmax in rat at 2 mg/kg, po; format: ADME, organism-based; set-up: dose 2 mg/kg, route oral; settings: in vivo
[6] = target: Mitogen-activated protein kinase 8 (Homo sapiens, UniProt P45983); test: Inhibition of JNK1
[7] = AUC in rat at 2 mg/kg, po; format: ADME, organism-based; set-up: dose 2 mg/kg, route oral; settings: plasma
[8] = Volume of distribution at steady state in rat at 1 mg/kg, iv or 2 mg/kg, po; format: ADME, organism-based; settings: in vivo, read-out: Vdss
[9] = Clearance in rat at 1 mg/kg, iv or 2 mg/kg, po; format: ADME, organism-based; settings: in vivo
[10] = Half life in rat at 1 mg/kg, iv or 2 mg/kg, po; format: ADME, organism-based; settings: in vivo
[11] = Oral bioavailability in rat at 2 mg/kg; format: ADME, organism-based; settings: in vivo
[12] = target: RAC-alpha serine/threonine-protein kinase (Homo sapiens, UniProt P31749); test: Inhibition of Akt1
[13] = target: Mitogen-activated protein kinase 10 (Homo sapiens, UniProt P53779); test: Inhibition of JNK3
[14] = Inhibition of MRCK
[15] = Inhibition of p38 kinase
CYP1A2 = target: T2, CYP1A2 (Homo sapiens, UniProt P05177); test: Inhibition of CYP1A2 at 10 uM; format: ADME
T2 sequence (P05177 whole entry): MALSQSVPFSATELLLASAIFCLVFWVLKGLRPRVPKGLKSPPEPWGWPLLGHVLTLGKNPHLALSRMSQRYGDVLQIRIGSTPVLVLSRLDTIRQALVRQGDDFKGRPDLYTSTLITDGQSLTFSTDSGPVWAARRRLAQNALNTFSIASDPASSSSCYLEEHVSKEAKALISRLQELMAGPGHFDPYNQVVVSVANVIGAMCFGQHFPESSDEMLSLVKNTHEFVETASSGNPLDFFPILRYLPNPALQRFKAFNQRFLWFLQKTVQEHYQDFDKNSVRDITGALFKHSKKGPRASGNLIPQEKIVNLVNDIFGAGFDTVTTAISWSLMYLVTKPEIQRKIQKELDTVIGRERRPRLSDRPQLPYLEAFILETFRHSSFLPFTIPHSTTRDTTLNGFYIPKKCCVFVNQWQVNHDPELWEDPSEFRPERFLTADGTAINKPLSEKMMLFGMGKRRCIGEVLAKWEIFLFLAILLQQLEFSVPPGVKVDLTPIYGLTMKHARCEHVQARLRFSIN

CYP2D6 = CYP2D6 (Homo sapiens, UniProt P10635); test: Inhibition of CYP2D6 at 10 uM; format: ADME
CYP3A4 = CYP3A4 (Homo sapiens, UniProt P08684); test: Inhibition of CYP3A4 at 10 uM; format: ADME
CYP2C9 = CYP2C9 (Homo sapiens, UniProt P11712); test: Inhibition of CYP2C9 at 10 uM; format: ADME
[16] = Selectivity for ROCK2 over PKA

Sequence of CYP2C9 (P11712 whole entry): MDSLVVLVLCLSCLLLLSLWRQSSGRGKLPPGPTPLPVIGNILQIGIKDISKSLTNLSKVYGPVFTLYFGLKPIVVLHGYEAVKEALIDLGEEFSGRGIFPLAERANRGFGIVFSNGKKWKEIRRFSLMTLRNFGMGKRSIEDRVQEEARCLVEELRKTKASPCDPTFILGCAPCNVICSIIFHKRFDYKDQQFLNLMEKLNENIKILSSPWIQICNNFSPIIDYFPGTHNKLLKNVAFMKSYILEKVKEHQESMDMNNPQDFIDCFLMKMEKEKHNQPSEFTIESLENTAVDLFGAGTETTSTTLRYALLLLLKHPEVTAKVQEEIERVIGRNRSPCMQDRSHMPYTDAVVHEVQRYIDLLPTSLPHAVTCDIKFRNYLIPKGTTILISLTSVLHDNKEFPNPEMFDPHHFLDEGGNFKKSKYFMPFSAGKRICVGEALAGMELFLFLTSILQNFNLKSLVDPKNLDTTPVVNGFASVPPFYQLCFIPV
Sequence of CYP3A4 (P08684 whole entry): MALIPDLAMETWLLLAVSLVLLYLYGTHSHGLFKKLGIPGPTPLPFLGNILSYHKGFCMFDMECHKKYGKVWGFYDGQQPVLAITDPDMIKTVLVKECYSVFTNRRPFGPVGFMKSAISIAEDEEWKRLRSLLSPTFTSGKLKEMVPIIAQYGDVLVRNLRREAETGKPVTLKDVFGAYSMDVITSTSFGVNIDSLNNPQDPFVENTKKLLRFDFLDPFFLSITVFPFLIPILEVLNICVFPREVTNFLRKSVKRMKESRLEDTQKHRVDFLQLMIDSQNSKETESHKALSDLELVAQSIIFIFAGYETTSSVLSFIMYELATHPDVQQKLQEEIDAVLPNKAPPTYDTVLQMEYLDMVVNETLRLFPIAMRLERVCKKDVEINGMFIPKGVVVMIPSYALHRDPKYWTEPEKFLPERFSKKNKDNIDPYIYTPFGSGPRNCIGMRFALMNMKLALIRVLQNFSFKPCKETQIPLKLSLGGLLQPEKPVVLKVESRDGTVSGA
Sequence of CYP2D6 (P10635 whole entry): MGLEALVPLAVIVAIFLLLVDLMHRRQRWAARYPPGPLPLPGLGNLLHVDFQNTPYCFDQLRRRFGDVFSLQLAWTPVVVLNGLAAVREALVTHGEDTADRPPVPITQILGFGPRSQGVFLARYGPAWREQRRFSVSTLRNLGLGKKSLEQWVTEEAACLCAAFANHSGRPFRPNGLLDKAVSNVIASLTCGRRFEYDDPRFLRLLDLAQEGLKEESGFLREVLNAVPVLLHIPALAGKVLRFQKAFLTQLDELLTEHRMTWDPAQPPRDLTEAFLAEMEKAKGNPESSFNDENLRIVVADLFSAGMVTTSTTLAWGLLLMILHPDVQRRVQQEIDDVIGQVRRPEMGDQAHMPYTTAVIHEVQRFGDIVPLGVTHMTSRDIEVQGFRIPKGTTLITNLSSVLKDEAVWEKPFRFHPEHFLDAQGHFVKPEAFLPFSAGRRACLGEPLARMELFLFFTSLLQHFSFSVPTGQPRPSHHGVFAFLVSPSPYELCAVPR
T1 sequence (O75116 whole entry): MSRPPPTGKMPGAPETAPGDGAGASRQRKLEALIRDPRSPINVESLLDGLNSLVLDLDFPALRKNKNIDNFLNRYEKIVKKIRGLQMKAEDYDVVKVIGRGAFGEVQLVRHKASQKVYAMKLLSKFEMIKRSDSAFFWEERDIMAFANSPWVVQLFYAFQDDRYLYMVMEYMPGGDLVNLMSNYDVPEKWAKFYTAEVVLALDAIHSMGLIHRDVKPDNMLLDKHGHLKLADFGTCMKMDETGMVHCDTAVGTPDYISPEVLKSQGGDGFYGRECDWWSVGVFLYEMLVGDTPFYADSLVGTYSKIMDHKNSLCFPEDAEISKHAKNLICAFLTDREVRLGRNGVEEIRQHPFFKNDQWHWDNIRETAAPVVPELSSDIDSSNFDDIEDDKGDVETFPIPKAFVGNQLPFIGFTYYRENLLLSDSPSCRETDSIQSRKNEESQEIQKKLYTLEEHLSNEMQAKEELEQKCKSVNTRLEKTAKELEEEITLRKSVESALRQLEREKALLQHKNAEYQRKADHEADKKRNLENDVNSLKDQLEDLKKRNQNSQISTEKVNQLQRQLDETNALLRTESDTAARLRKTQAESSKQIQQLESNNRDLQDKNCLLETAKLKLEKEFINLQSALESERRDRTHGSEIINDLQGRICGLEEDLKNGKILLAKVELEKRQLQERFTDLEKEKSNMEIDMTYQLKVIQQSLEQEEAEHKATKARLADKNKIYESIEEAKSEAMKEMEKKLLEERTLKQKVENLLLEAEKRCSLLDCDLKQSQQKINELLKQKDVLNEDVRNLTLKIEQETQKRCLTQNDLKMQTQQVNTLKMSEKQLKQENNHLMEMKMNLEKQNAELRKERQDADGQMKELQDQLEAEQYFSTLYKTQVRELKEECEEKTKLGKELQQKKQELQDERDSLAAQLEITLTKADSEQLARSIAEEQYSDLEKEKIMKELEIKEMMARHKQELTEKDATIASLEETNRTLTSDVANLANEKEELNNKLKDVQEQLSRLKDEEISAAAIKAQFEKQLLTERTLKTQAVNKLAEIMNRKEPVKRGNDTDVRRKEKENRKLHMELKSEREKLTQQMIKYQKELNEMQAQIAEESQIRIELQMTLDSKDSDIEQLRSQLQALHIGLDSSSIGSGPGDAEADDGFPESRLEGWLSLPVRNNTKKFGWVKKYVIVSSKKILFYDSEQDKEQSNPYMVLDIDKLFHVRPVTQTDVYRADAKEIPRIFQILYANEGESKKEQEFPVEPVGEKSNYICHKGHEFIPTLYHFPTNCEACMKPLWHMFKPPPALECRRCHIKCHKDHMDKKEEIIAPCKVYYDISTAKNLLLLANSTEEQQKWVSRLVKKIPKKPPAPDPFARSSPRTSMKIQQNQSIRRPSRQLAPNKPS
Sequence of RAC-alpha serine/threonine-protein kinase (P31749 whole entry): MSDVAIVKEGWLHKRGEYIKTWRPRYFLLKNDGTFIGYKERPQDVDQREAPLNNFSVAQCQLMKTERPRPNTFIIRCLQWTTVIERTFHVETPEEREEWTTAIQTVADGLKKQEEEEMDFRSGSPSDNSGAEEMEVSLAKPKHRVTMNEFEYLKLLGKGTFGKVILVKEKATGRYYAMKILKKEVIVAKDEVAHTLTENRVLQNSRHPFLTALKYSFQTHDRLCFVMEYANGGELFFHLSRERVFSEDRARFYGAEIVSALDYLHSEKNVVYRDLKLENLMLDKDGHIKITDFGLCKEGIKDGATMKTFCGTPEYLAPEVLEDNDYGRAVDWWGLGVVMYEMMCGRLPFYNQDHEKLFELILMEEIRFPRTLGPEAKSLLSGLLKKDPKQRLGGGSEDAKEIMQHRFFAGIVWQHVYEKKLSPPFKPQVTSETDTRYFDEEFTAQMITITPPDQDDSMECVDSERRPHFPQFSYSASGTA
Sequence of Mitogen-activated protein kinase 8 (P45983 whole entry): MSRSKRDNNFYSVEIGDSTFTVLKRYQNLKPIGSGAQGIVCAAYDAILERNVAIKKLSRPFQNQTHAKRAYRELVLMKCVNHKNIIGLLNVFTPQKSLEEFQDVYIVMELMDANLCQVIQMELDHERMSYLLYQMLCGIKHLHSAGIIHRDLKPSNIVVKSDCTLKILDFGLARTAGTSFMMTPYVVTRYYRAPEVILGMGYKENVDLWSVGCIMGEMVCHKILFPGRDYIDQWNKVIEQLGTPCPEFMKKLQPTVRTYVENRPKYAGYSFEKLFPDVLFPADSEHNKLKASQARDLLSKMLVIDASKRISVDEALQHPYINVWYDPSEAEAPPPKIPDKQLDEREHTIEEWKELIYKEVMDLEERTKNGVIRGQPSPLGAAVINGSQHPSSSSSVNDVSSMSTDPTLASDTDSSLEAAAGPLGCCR
Sequence of Mitogen-activated protein kinase 10 (P53779 whole entry): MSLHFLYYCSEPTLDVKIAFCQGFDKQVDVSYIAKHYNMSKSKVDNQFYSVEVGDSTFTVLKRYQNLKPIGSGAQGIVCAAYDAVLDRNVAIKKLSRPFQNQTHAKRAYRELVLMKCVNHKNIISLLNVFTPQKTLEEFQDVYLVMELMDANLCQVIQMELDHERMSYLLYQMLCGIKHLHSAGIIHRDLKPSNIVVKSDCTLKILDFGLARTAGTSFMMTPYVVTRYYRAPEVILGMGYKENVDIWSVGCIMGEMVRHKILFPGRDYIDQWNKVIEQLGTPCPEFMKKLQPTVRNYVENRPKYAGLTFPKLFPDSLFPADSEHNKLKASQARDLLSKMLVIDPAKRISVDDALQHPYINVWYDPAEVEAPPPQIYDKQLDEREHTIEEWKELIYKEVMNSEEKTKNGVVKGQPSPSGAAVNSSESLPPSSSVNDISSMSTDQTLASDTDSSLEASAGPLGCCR

SMILES	IC50 [1] [µM]	IC50 [2] [µM]	half-life [3] [min]	IC50 [4] [µM]	other results
Nc1nccc(-c2ccc3nc(C4COc5ccc(F)cc5C4)oc3c2)n1 (stereo unspecified)	0.015	0.028	91	2.91	
COc1ccc2c(c1)CC(c1nc3c(F)cc(-c4ccnc(N)n4)cc3[nH]1)CO2 (stereo unspecified)	< 0.001	< 0.006		0.397	Cmax [5]: 740 nM; IC50 [6]: 14.1 µM; AUC [7]: 2.2 µM·h; Vd [8]: 0.63 L/kg; clearance [9]: 12 mL/min/kg; half-life [10]: 84 min; bioavailability [11]: 29%; IC50 [12]: 5 µM; IC50 [13]: 16.8 µM; IC50 [14]: 1.09 µM; IC50 [15]: > 20 µM
c1ccc2c(c1)CC(c1nc3ccc(-c4cn[nH]c4)cc3[nH]1)CO2 (stereo unspecified)	0.027	0.086	20	0.168	inhibition at 10 µM (CYP1A2): 51%; inhibition at 10 µM (CYP2D6): 84%; inhibition at 10 µM (CYP3A4): 47%; inhibition at 10 µM (CYP2C9): 84%
Cc1ccc2c(c1)CC(c1nc3ccc(-c4ccnc(N)n4)cc3o1)CO2 (stereo unspecified)	0.078		25	6.39	
COc1ccc2c(c1)CC(c1nc3ccc(-c4ccnc(N)n4)cc3o1)CO2 (stereo unspecified)	0.002	0.046	34		Cmax [5]: 970 nM; AUC [7]: 6.6 µM·h; Vd [8]: 1.6 L/kg; clearance [9]: 8.4 mL/min/kg; half-life [10]: 156 min; fold change (FC) [16]: 950; bioavailability [11]: 63%
Nc1nccc(-c2ccc3nc(C4COc5ccc(F)cc5C4)[nH]c3c2)n1 (stereo unspecified)	0.006		45	0.27	
c1ccc2c(c1)CC(c1nc3ccc(-c4cn[nH]c4)cc3o1)CO2 (stereo unspecified)	0.021	0.33	40	1.21	inhibition at 10 µM (CYP1A2): 27%; inhibition at 10 µM (CYP2D6): 41%; inhibition at 10 µM (CYP3A4): 15%; inhibition at 10 µM (CYP2C9): 80%
c1ccc2c(c1)CC(c1nc3ccc(-c4ccncc4)cc3[nH]1)CO2 (stereo unspecified)	0.002	< 0.006	29	0.317	inhibition at 10 µM (CYP1A2): 90%; inhibition at 10 µM (CYP2D6): 92%; inhibition at 10 µM (CYP3A4): 96%; inhibition at 10 µM (CYP2C9): 95%
Cc1[nH]ncc1-c1ccc2nc(C3COc4ccccc4C3)[nH]c2c1 (stereo unspecified)	0.009		30	0.122	
COC(=O)c1ccc2c(c1)CC(c1nc3ccc(-c4ccnc(N)n4)cc3[nH]1)CO2 (stereo unspecified)	0.006	0.271	18	10.2	

The next lines start with results.

IC50 [1] [µM]	IC50 [2] [µM]	half-life [3] [min]	IC50 [4] [µM]	SMILES	other results
0.294				CC(C)Oc1ccc2c(c1)CC(c1nc3ccc(-c4ccnc(N)n4)cc3o1)CO2 (stereo unspecified)	
< 0.001	0.023	25	0.075	Nc1nccc(-c2ccc3nc(C4COc5ccc(C(=O)NCc6ccccc6)cc5C4)[nH]c3c2)n1 (stereo unspecified)	
< 0.001	0.212	79	0.669	Nc1nccc(-c2ccc3nc(C4COc5ccc(C(=O)NC6CC6)cc5C4)[nH]c3c2)n1 (stereo unspecified)	
0.024				COC(=O)c1ccc2c(c1)CC(c1nc3ccc(-c4ccnc(N)n4)cc3o1)CO2 (stereo unspecified)	
0.009	0.533	70	0.778	Cc1[nH]ncc1-c1ccc2nc(C3COc4ccccc4C3)oc2c1 (stereo unspecified)	
0.008	0.066	44	0.198	Nc1nccc(-c2ccc3nc(C4COc5ccccc5C4)[nH]c3c2)n1 (stereo unspecified)	inhibition at 10 µM (CYP1A2): 31%; inhibition at 10 µM (CYP2D6): 15%; inhibition at 10 µM (CYP3A4): -3%; inhibition at 10 µM (CYP2C9): 13%
0.296			6.38	CC(C)Oc1ccc2c(c1)CC(c1nc3ccc(-c4ccnc(N)n4)cc3[nH]1)CO2 (stereo unspecified)	
	0.099	28	0.602	COc1ccc2c(c1)CC(c1nc3ccc(-c4ccnc(N)n4)cc3[nH]1)CO2 (stereo unspecified)	Cmax [5]: 900 nM; AUC [7]: 1.9 µM·h; Vd [8]: 0.89 L/kg; clearance [9]: 17 mL/min/kg; half-life [10]: 138 min; fold change (FC) [16]: 240; bioavailability [11]: 35%
0.027		57	1.34	Nc1nccc(-c2ccc3nc(C4COc5ccccc5C4)oc3c2)n1 (stereo unspecified)	inhibition at 10 µM (CYP1A2): 0%; inhibition at 10 µM (CYP2D6): -4%; inhibition at 10 µM (CYP3A4): -6%; inhibition at 10 µM (CYP2C9): -8%
